Results on 24 molecules are retold here after patent publication US10202389B2, “Pyrazolopyrimidinyl inhibitors of ubiquitin-activating enzyme” (Millennium Pharmaceuticals, Inc., priority 2012, dated 2019).

For the test, the target named is recombinant human UAE (Homo sapiens (Human), UniProt P22314). Put plainly: Ubiquitin Activating Enzyme (UAE) HTRF Assay. The settings on record: read-out: % inhibition @0.111 μM.
Sequence of recombinant human UAE (P22314 whole entry): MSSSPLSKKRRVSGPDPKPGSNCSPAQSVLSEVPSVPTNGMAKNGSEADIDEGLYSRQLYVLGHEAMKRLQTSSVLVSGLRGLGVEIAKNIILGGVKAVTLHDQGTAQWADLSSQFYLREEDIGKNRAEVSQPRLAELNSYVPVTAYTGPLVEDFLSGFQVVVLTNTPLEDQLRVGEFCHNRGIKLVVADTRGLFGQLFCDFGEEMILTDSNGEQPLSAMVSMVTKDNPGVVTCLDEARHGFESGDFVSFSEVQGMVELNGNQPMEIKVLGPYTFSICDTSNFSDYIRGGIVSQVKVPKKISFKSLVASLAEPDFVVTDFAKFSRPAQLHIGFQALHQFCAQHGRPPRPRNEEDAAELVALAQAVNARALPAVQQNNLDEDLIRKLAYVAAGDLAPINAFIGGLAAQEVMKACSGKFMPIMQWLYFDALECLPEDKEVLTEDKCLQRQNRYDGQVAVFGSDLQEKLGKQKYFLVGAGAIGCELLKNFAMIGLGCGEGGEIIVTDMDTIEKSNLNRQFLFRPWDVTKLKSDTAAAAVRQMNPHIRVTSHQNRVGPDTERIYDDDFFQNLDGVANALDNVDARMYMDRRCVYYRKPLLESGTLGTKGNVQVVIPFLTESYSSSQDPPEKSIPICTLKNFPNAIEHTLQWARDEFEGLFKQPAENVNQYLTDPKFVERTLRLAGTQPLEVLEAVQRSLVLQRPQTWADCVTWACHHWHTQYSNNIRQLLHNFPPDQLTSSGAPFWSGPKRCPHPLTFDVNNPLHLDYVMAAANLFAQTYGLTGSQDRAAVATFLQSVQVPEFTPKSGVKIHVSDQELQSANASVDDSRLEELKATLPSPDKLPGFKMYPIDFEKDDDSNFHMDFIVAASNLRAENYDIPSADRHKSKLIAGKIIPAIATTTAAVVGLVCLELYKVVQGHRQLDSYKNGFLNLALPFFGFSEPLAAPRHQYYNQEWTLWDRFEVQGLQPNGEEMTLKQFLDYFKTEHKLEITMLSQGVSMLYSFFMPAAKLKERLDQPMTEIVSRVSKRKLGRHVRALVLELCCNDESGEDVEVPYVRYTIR
Method: After incubation for 120 minutes, quantification of the FRET is performed on the Pherostar (BMG).
For compounds whose values are marked with an asterisk (*), mouse UAE was used. For all other compounds, human UAE was used.
Regarding `NS(=O)(=O)OC[C@H]1C[C@@H](Nc2ccnc3cc(-c4cc(C(F)(F)F)ccc4Cl)nn23)[C@H](O)[C@@H]1O` (relative stereo) [Compound I-030, (rac)-((1R,2R,3S,4R)-4-((2-(2-Chloro-5-(trifluoromethyl)phenyl)pyrazolo[1,5-a]pyrimidin-7-yl)amino)-2,3-dihydroxycyclopentyl)methyl rel-sulfamate], the inhibition – broadly, how much of the control response was suppressed – at 0.111 µM worked out at 99%.
`NS(=O)(=O)OC[C@H]1C[C@@H](Nc2ccnc3cc(-c4nc(-c5ccccc5)cs4)nn23)[C@H](O)[C@@H]1O` (relative stereo) [Compound I-031, (rac)-[(1R,2R,3S,4R)-2,3-dihydroxy-4-{[2-(4-phenyl-1,3-thiazol-2-yl)pyrazolo[1,5-a]pyrimidin-7-yl]amino}cyclopentyl]methyl rel-sulfamate]: the inhibition at 0.111 µM was determined as 100%.
Under `NS(=O)(=O)OC[C@H]1C[C@@H](Nc2ccnc3cc(-c4c[nH]c5ccccc45)nn23)[C@H](O)[C@@H]1O` (relative stereo) [Compound I-032, (rac)-[(1R,2R,3S,4R)-2,3-dihydroxy-4-{[2-(1H-indol-3-yl)pyrazolo[1,5-a]pyrimidin-7-yl]amino}cyclopentyl]methyl rel-sulfamate] stands 100%; under `NS(=O)(=O)OC[C@H]1C[C@@H](Nc2ccnc3cc(-c4ccc(C(F)(F)F)c5cccnc45)nn23)[C@H](O)[C@@H]1O` (relative stereo) [Compound I-033, (rac)-((1R,2R,3S,4R)-2,3-dihydroxy-4-(2-(5-(trifluoromethyl)quinolin-8-yl)pyrazolo[1,5-a]pyrimidin-7-ylamino)cyclopentyl)methyl rel-sulfamate], 98%.
With `NS(=O)(=O)OC[C@H]1C[C@@H](Nc2ccnc3cc(-c4ccc5ncccc5c4)nn23)[C@H](O)[C@@H]1O` (relative stereo) [Compound I-034, (rac)-((1R,2R,3S,4R)-2,3-dihydroxy-4-(2-(quinolin-6-yl)pyrazolo[1,5-a]pyrimidin-7-ylamino)cyclopentyl)methyl rel-sulfamate], the inhibition at 0.111 µM was 100%.
For `C[Si](C)(C)c1cccc(-c2cc3nccc(N[C@@H]4C[C@H](COS(N)(=O)=O)[C@@H](O)[C@H]4O)n3n2)c1` (relative stereo) [Compound I-035, (rac)-((1R,2R,3S,4R)-2,3-dihydroxy-4-(2-(3-(trimethylsilyl)phenyl)pyrazolo[1,5-a]pyrimidin-7-ylamino)cyclopentyl)methyl rel-sulfamate], the inhibition at 0.111 µM was 100%.
For the molecule `NS(=O)(=O)OC[C@H]1C[C@@H](Nc2ccnc3cc(-c4cccc(-c5ccccn5)c4)nn23)[C@H](O)[C@@H]1O` (relative stereo) [Compound I-036, (rac)-((1R,2R,3S,4R)-2,3-Dihydroxy-4-((2-(3-(pyridin-2-yl)phenyl)pyrazolo[1,5-a]pyrimidin-7-yl)amino)cyclopentyl)methyl rel-sulfamate], the inhibition at 0.111 µM is 100%.
For the molecule `NS(=O)(=O)OC[C@H]1C[C@@H](Nc2ccnc3cc(-c4ccc5[nH]c6ccccc6c5c4)nn23)[C@H](O)[C@@H]1O` (relative stereo) [Compound I-037, (rac)-[(1R,2R,3S,4R)-4-{[2-(9H-carbazol-3-yl)pyrazolo[1,5-a]pyrimidin-7-yl]amino}-2,3-dihydroxycyclopentyl]methyl rel-sulfamate], the inhibition at 0.111 µM is 100%.
With `Cc1sc(-c2ccccc2)nc1-c1cc2nccc(N[C@@H]3C[C@H](COS(N)(=O)=O)[C@@H](O)[C@H]3O)n2n1` (relative stereo) [Compound I-038, (rac)-[(1R,2R,3S,4R)-2,3-dihydroxy-4-{[2-(5-methyl-2-phenyl-1,3-thiazol-4-yl)pyrazolo[1,5-a]pyrimidin-7-yl]amino}cyclopentyl]methyl rel-sulfamate], the inhibition at 0.111 µM was 100%.
Under `NS(=O)(=O)OC[C@H]1C[C@@H](Nc2ccnc3cc(-c4ccnc5cc(Cl)ccc45)nn23)[C@H](O)[C@@H]1O` (relative stereo) [Compound I-039, (rac)-((1R,2R,3S,4R)-4-(2-(7-chloroquinolin-4-yl)pyrazolo[1,5-a]pyrimidin-7-ylamino)-2,3-dihydroxycyclopentyl)methyl rel-sulfamate] stands 100%; under `NS(=O)(=O)OC[C@H]1C[C@@H](Nc2ccnc3cc(-c4cccc(OC(F)(F)F)c4)nn23)[C@H](O)[C@@H]1O` (relative stereo) [Compound I-040, (rac)-((1R,2R,3S,4R)-2,3-Dihydroxy-4-((2-(3-(trifluoromethoxy)phenyl)pyrazolo[1,5-a]pyrimidin-7-yl)amino)cyclopentyl)methyl rel-sulfamate], 100%; under `CC1(C)CCc2ccc(-c3cc4nccc(N[C@@H]5C[C@H](COS(N)(=O)=O)[C@@H](O)[C@H]5O)n4n3)cc21` (relative stereo) [Compound I-041, (rac)-((1R,2R,3S,4R)-4-(2-(3,3-dimethyl-2,3-dihydro-1H-inden-5-yl)pyrazolo[1,5-a]pyrimidin-7-ylamino)-2,3-dihydroxycyclopentyl)methyl rel-sulfamate], 99%.
Turning to `NS(=O)(=O)OC[C@H]1C[C@@H](Nc2ccnc3cc(-c4ccc5ccccc5n4)nn23)[C@H](O)[C@@H]1O` (relative stereo) [Compound I-042, (rac)-((1R,2R,3S,4R)-2,3-dihydroxy-4-(2-(quinolin-2-yl)pyrazolo[1,5-a]pyrimidin-7-ylamino)cyclopentyl)methyl rel-sulfamate], the inhibition at 0.111 µM is 100%.
The same measure for `NS(=O)(=O)OC[C@H]1C[C@@H](Nc2ccnc3cc(-c4ccc5cccnc5c4)nn23)[C@H](O)[C@@H]1O` (relative stereo) [Compound I-043, (rac)-((1R,2R,3S,4R)-2,3-dihydroxy-4-(2-(quinolin-7-yl)pyrazolo[1,5-a]pyrimidin-7-ylamino)cyclopentyl)methyl rel-sulfamate]: 100%; for `NS(=O)(=O)OC[C@H]1C[C@@H](Nc2ccnc3cc(-c4cccc(SC(F)(F)F)c4)nn23)[C@H](O)[C@@H]1O` (relative stereo) [Compound I-044, (rac)-((1R,2R,3S,4R)-2,3-dihydroxy-4-(2-(3-(trifluoromethylthio)phenyl)pyrazolo[1,5-a]pyrimidin-7-ylamino)cyclopentyl)methyl rel-sulfamate]: 100%.
The same measure for `NS(=O)(=O)OC[C@H]1C[C@@H](Nc2ccnc3cc(-c4cccc5ccsc45)nn23)[C@H](O)[C@@H]1O` (relative stereo) [Compound I-045, (rac)-((1R,2R,3S,4R)-4-((2-(Benzo[b]thiophen-7-yl)pyrazolo[1,5-a]pyrimidin-7-yl)amino)-2,3-dihydroxycyclopentyl)methyl rel-sulfamate]: 100%.
In the case of `NS(=O)(=O)OC[C@H]1C[C@@H](Nc2ccnc3cc(-c4cccc(N5CCCC5)c4)nn23)[C@H](O)[C@@H]1O` (relative stereo) [Compound I-046, (rac)-((1R,2R,3S,4R)-2,3-dihydroxy-4-(2-(3-(pyrrolidin-1-yl)phenyl)pyrazolo[1,5-a]pyrimidin-7-ylamino)cyclopentyl)methyl rel-sulfamate], the inhibition at 0.111 µM came to 100%.
The same measure for `NS(=O)(=O)OC[C@H]1C[C@@H](Nc2ccnc3cc(-c4cccc(C5=CCCC5)c4)nn23)[C@H](O)[C@@H]1O` (relative stereo) [Compound I-047, (rac)-(1R,2R,3S,4R)-4-(2-(3-cyclopentenylphenyl)pyrazolo[1,5-a]pyrimidin-7-ylamino)-2,3-dihydroxycyclopentyl)methyl rel-sulfamate]: 100%; for `NS(=O)(=O)OC[C@H]1C[C@@H](Nc2ccnc3cc(-c4cccc(C5CCCC5)c4)nn23)[C@H](O)[C@@H]1O` (relative stereo) [Compound I-048, (rac)-[(1R,2R,3S,4R)-4-{[2-(3-cyclopentylphenyl)pyrazolo[1,5-a]pyrimidin-7-yl]amino}-2,3-dihydroxycyclopentyl]methyl rel-sulfamate]: 100%.
For `NS(=O)(=O)OC[C@H]1C[C@@H](Nc2ccnc3cc(-c4coc5ccccc45)nn23)[C@H](O)[C@@H]1O` (relative stereo) [Compound I-049, (rac)-((1R,2R,3S,4R)-4-(2-(benzofuran-3-yl)pyrazolo[1,5-a]pyrimidin-7-ylamino)-2,3-dihydroxycyclopentyl)methyl rel-sulfamate], the inhibition at 0.111 µM is 100%.
Under `NS(=O)(=O)OC[C@H]1C[C@@H](Nc2ccnc3cc(-c4cccc(OC(F)F)c4)nn23)[C@H](O)[C@@H]1O` (relative stereo) [Compound I-050, (rac)-((1R,2R,3S,4R)-4-((2-(3-(Difluoromethoxy)phenyl)pyrazolo[1,5-a]pyrimidin-7-yl)amino)-2,3-dihydroxycyclopentyl)methyl rel-sulfamate] stands 100%; under `NS(=O)(=O)OC[C@H]1C[C@@H](Nc2ccnc3cc(-c4cccc(Oc5ccccc5)c4)nn23)[C@H](O)[C@@H]1O` (relative stereo) [Compound I-051, (rac)-((1R,2R,3S,4R)-2,3-Dihydroxy-4-((2-(3-phenoxyphenyl)pyrazolo[1,5-a]pyrimidin-7-yl)amino)cyclopentyl)methyl rel-sulfamate], 90%.
Under `CC(C)(C)c1cccc(-c2cc3nccc(N[C@@H]4C[C@H](COS(N)(=O)=O)[C@@H](O)[C@H]4O)n3n2)n1` (relative stereo) [Compound I-052, (rac)-((1R,2R,3S,4R)-4-(2-(6-tert-butylpyridin-2-yl)pyrazolo[1,5-a]pyrimidin-7-ylamino)-2,3-dihydroxycyclopentyl)methyl rel-sulfamate] stands 100%; under `CC1(C)OCc2ccc(-c3cc4nccc(N[C@@H]5C[C@H](COS(N)(=O)=O)[C@@H](O)[C@H]5O)n4n3)cc21` (relative stereo) [Compound I-053, (rac)-((1R,2R,3S,4R)-4-(2-(3,3-dimethyl-1,3-dihydroisobenzofuran-5-yl)pyrazolo[1,5-a]pyrimidin-7-ylamino)-2,3-dihydroxycyclopentyl)methyl rel-sulfamate], 100%.
